# Data taken from ChEMBL document CHEMBL1201862, “PubChem BioAssay data set” (2004).
# Active and inactive are the calls of the source.
# What was measured:
# [1] = molecular target: FAD-linked sulfhydryl oxidase ALR (Homo sapiens, UniProt P55789); experiment: inhibitors of human ALR sulfhydryl oxidase, dose response, biochemical, H2O2 detection, luminescence, cherry-pick (AID 493248)
# [2] = Luminescence Cell-Based Dose Confirmation HTS to Identify Activators of 5'UTR Stem-Loop Driven Alpha-Synuclein mRNA Translation in H4 Neuroglioblastoma Cells. [Related pubchem assays: 1829 (Project Summary), 1814 (Primary HTS)]; format: functional
# [3] = Luminescence Cell-Based Dose Response HTS to Identify Activators of Luciferase Translation or Activity in H4 […] Cells. [Related pubchem assays: 1829 (Project Summary), 1814 (Primary HTS)]; format: functional
# [4] = test system: Streptococcus sp. 'group A'; experiment: growth inhibition of control SK(-) GAS strain, dose response, counter-screen for streptokinase expression inhibitor project, luminescence, kanamycin, BacTiterGlo, confirmation (AID 1900); format: functional, organism-based
# H4 = experiment: Luminescence Cell-Based Dose Response HTS to Identify Activators of 5'UTR Stem-Loop Driven Prion Protein mRNA Translation in H4 Neuroglioblastoma Cells. [Related pubchem assays: 1829 (Project Summary), 1814 (Primary HTS)]; format: functional; settings: Homo sapiens
# Streptokinase A = molecular target: T1, Streptokinase A (Streptococcus pyogenes serotype M1, UniProt P10520); experiment: S. pyogenes streptokinase expression inhibitors, potency, dose response, plasminogen activation absorbance, OD405 (AID 1914); format: functional, Streptococcus pyogenes M1 GAS;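 also: secreted streptokinase activity via plasminogen activation per viability signal from cell pellet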
# T1 sequence (P10520 whole entry): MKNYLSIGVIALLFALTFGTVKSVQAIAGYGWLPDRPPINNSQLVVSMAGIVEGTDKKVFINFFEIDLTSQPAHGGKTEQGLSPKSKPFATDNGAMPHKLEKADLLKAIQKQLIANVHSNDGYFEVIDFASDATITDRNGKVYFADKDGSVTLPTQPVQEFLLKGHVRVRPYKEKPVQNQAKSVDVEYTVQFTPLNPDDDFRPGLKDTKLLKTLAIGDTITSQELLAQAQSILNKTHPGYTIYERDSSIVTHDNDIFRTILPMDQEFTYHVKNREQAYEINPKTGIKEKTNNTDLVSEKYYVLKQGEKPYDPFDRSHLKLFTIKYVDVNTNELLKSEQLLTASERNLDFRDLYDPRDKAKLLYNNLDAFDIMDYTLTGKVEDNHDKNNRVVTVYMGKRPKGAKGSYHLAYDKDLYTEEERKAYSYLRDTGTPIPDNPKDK
# Streptococcus = experiment: Group A Streptococcus viability loss, dose response, counter-screen for streptokinase expression inhibitor project, luminescence, BacTiterGlo (AID 1915); format: functional, organism-based;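 also: potency for reduction of bacterial viability or growth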
# [5] = molecular target: T2, Replicative DNA helicase DnaB (Mycobacterium tuberculosis, UniProt P9WMR3); experiment: DnaB intein splicing inhibitors, dose response, biochemical, cell-free fluorescence (AID 449749); format: functional
# T2 sequence (P9WMR3 whole entry): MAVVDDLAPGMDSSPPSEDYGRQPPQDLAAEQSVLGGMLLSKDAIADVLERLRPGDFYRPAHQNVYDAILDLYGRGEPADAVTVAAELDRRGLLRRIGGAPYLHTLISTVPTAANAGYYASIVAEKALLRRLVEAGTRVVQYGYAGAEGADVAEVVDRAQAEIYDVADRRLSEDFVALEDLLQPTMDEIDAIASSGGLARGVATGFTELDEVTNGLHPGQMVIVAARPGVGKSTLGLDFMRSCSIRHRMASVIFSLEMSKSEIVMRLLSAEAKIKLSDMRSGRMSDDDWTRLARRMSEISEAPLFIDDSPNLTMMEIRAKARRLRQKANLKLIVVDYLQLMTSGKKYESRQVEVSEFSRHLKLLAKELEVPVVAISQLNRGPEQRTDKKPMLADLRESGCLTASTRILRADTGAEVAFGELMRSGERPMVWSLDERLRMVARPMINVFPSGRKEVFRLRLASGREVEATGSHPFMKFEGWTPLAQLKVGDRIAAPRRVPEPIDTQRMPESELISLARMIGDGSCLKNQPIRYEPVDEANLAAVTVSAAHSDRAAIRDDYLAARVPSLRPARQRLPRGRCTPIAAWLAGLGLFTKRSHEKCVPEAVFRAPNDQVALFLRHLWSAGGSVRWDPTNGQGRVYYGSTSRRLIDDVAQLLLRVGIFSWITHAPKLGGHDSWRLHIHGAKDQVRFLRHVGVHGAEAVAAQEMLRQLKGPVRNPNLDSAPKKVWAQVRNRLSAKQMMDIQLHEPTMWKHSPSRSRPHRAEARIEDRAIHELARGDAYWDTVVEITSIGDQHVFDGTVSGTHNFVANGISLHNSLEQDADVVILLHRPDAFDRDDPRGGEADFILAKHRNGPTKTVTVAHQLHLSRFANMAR
# Protein RecA = molecular target: T3, Protein RecA (Mycobacterium tuberculosis, UniProt P9WHJ3); experiment: Fluorescence Cell-Free Homogeneous Dose Retest to Identify Inhibitors of RecA-Intein Splicing Activity. [Related pubchem assays (depositor defined):AID2097, AID2223, AID489010, AID492950]; format: functional
# T3 sequence (P9WHJ3 whole entry): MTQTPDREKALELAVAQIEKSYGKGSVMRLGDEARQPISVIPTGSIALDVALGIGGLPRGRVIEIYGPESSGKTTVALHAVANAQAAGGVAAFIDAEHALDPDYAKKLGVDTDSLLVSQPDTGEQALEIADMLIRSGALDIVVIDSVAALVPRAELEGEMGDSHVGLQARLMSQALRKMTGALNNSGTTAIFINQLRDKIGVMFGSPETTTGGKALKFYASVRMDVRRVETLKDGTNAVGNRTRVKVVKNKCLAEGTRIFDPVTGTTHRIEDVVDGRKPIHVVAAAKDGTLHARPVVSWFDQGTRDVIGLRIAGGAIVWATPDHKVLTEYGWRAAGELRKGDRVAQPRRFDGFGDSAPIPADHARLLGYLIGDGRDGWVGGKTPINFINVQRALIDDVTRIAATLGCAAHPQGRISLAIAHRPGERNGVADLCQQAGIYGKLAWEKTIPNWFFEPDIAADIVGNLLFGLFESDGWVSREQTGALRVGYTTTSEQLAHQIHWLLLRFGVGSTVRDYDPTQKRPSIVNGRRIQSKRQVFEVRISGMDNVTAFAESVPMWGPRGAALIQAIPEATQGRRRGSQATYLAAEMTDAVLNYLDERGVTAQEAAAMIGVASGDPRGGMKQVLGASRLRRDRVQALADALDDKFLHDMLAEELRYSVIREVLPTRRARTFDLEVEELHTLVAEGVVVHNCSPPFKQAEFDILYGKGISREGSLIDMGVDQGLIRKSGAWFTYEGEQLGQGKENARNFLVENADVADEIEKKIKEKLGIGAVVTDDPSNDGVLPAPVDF
# Cytochrome P450 2C19 = Cytochrome P450 2C19 (Homo sapiens, UniProt P33261); experiment: Cytochrome panel assay with activity outcomes. Panel member name: p450-cyp2c19 Compounds with AC50 equal or less than 10 uM are considered active; format: functional; settings: read-out: AC50
# Chain of Cytochrome P450 2C19 (P33261 whole entry): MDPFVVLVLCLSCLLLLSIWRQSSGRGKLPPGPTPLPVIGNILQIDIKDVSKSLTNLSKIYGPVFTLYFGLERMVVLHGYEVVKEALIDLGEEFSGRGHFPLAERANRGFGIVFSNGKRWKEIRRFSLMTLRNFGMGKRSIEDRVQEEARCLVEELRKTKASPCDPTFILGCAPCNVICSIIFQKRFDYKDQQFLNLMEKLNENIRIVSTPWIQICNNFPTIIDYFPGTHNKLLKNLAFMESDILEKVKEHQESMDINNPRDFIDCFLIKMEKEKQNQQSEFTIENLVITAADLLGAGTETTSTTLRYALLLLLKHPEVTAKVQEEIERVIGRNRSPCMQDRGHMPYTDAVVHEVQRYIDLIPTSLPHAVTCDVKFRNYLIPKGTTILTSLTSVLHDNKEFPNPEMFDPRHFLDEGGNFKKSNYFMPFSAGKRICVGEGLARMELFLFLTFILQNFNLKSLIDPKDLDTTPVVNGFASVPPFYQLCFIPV
# Cytochrome P450 1A2 = molecular target: T4, Cytochrome P450 1A2 (Homo sapiens, UniProt P05177);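 also: PubChem cytochrome P450 panel assay, CYP1A2 panel member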
# T4 sequence (P05177 whole entry): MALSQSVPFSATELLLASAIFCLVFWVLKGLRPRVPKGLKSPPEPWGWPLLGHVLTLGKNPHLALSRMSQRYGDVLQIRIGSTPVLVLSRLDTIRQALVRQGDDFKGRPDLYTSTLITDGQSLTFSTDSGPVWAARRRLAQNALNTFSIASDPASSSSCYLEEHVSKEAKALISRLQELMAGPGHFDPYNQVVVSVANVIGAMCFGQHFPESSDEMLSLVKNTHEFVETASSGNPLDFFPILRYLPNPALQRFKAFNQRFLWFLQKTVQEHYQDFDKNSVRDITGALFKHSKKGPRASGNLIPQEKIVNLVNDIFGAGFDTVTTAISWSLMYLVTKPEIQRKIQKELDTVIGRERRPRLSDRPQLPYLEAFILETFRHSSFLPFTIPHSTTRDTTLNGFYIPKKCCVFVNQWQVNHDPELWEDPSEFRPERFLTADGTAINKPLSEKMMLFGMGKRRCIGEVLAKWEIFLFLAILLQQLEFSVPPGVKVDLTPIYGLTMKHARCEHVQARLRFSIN
# [6] = molecular target: T5, Heat shock factor protein 1 (Mus musculus, UniProt P38532); experiment: HSF1 potentiators in luciferase reporter cells, confirmation, cell-based, NIH3T3, luminescence, dose retest (AID 435004); format: functional;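 also: stress induced by proteasome inhibitor MG132 added 30 min after compound; luciferase reporter driven by HSF1 response element in NIH3T3 cells; actives raise luminescence as potentiators of the MG132 stress response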
# T5 sequence (P38532 whole entry): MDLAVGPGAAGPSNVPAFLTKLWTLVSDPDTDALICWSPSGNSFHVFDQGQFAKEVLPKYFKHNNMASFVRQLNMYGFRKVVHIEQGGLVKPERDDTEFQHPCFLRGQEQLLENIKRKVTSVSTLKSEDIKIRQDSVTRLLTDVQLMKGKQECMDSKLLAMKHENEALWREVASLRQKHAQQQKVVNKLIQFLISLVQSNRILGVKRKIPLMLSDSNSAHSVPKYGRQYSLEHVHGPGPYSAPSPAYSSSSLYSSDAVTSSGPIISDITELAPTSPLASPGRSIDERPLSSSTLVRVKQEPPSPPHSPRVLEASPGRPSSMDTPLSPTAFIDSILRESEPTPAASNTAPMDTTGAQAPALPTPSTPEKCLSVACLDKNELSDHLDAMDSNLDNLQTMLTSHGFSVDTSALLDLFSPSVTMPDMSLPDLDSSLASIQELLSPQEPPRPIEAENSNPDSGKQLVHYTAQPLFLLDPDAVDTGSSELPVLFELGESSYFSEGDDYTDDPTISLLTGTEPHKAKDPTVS
# [7] = molecular target: T6, Rac GTPase-activating protein 1 (Homo sapiens, UniProt Q9H0H5); experiment: MgcRacGAP GTPase-activating activity inhibitors, confirmation, biochemical, ADP Hunter fluorescence, primary and confirmatory (AID 624330); format: functional
# T6 sequence (Q9H0H5 whole entry): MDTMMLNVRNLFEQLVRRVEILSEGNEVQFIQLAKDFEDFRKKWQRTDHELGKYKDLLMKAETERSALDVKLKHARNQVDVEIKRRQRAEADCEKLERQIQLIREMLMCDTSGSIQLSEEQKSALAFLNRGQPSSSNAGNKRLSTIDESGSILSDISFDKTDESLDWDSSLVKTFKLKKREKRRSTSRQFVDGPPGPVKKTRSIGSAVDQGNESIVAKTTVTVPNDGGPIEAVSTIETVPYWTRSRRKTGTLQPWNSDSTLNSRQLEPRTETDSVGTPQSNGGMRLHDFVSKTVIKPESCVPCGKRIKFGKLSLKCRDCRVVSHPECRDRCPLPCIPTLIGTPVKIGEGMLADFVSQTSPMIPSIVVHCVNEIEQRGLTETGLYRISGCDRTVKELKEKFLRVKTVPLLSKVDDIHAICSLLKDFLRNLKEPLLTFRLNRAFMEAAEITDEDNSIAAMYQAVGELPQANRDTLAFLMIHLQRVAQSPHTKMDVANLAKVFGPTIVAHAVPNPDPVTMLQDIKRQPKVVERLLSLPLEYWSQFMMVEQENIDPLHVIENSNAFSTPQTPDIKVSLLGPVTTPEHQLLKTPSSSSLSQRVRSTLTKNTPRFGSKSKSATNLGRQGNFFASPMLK
# Chain of FAD-linked sulfhydryl oxidase ALR (P55789 whole entry): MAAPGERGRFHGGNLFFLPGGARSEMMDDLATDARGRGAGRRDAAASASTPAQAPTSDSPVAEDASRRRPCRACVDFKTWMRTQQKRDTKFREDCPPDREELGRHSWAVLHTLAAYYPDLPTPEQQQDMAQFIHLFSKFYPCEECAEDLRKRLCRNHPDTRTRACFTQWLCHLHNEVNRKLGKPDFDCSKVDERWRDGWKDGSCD
smiles,measurement,setting,value
O=C(NCC(=O)N1CCN(c2ccccc2O)CC1)c1ccco1,AC50,[1],2.22 µM (active)
c1ccc(-c2onc(-c3ccco3)c2-c2ccc3[nH]ccc3c2)cc1,EC50,[2],14.3 µM (active)
same,EC50,[3],63.1 µM (active)
same,EC50,[4],3.19 µM (active)
same,EC50,H4,23.7 µM (active)
same,EC50,Streptokinase A,4.99 µM (active)
same,EC50,Streptococcus,26.4 µM (active)
CCc1ccc(NC(=O)CSc2ccc(-c3sc(C)nc3C)nn2)cc1,AC50,[5],278 µM (active)
same,EC50,Protein RecA,> 380 µM (inactive)
CC(C)(C)OC(=O)NCc1nnc(S)n1C1CC1,AC50,[1],5.46 µM (active)
O=C(c1cccc(C(F)(F)F)c1)C1CCCN(C(=O)c2cc(C3CC3)[nH]n2)C1 (centres undefined),AC50,[1],0.392 µM (active)
CCCc1n[nH]c2c1C(c1ccc(OC(=O)c3ccco3)cc1)C(C#N)=C(N)O2 (centres undefined),AC50,[5],3.41 µM (active)
same,EC50,Protein RecA,5.22 µM (active)
Cc1ccc(C)c(NC(=O)NNS(=O)(=O)c2ccc(C)c(C)c2)c1,AC50,[1],3.8 µM (active)
CCOc1cc(/C=C2\C(=N)N3N=C(N4CCCCC4)SC3=NC2=O)ccc1OC(=O)c1ccco1,AC50,[5],> 380 µM (inactive)
same,EC50,Protein RecA,18.6 µM (active)
Cc1c(C(=O)O)c2cc(O)ccc2n1-c1ccccc1,AC50,[1],5.18 µM (active)
CN1CCN2c3ccc(N)cc3CC3(C(=O)NC(=O)NC3=O)C2C1 (centres undefined),AC50,[5],147 µM (active)
same,EC50,Protein RecA,39.5 µM (active)
CCc1ccc(CN(C(=O)c2cc3ccccc3oc2=O)C2CCS(=O)(=O)C2)cc1 (centres undefined),EC50,[2],27.7 µM (active)
same,EC50,[3],28.6 µM (active)
same,EC50,H4,0.547 µM (active)
same,AC50,Cytochrome P450 2C19,20 µM (inconclusive)
same,AC50,Cytochrome P450 1A2,28.2 µM (inconclusive)
[O-]c1c[n+](-c2ccc(-[n+]3cc([O-])on3)cc2)no1,AC50,[1],4.1 µM (active)
COc1ccc(-c2[nH]nc3c2C(c2ccccc2OC(=O)N2CCOCC2)C(C#N)=C(N)O3)cc1 (centres undefined),AC50,[5],11.2 µM (active)
same,EC50,Protein RecA,3.91 µM (active)
Cc1ccc2occ(C3N[C@H](C(=O)O)CS3)c(=O)c2c1 (some centres undefined),AC50,[1],0.392 µM (active)
CCN(CC)c1ccc(NS(=O)(=O)c2ccc(-c3ccc(O)nn3)o2)c(C)c1,AC50,[1],0.382 µM (active)
CCC1(C(=O)O)NC(c2cc(OC)ccc2O)C2C(=O)N(Cc3ccccc3)C(=O)C21 (centres undefined),AC50,[1],7.15 µM (active)
Cc1ccc(-c2c3c(=O)n(C)c(=O)n(C)c3cn2-n2cnnc2)cc1,EC50,[6],13.5 µM (active)
same,AC50,[1],9.89 µM (active)
Oc1ccccc1/C=N/Nc1ccccc1,AC50,[1],7.86 µM (active)
CCN(CC)C(=N)/C(C#N)=N/Nc1ccc(C)cc1,AC50,[1],0.035 µM (active)
COc1ccc(CC(=O)N/N=C(/C)CC(=O)N(C)c2ccccc2)cc1,AC50,[5],29.3 µM (active)
same,EC50,Protein RecA,9.23 µM (active)
Cn1cccc1/C=N/N1CCN(c2ccccc2)CC1,AC50,[1],85.3 µM (active)
same,IC50,[7],84.2 µM (active)
CCCn1c2ccc(/C(C)=N\O)cc2c2cc(/C(C)=N/O)ccc21,AC50,[1],0.028 µM (active)
